Experiments:
lung cancer cell = assay: Cancer cell survival inhibitory activity (MTT assay) of EV501 to EV509; assay type: cell-based; conditions: 0.5 μM (lowest concentration), MTT assay (FIG. 18)
Experimental: (§1) The cancer cell lines were seeded in a 96-well plate at a density of 2×10^3 cells per well and cultured for 24 hours to allow the cells to attach. The cells were then treated with diluted drugs in media for 3 days and cell viability was assessed using MTT assay or crystal violet (CB) assay. For the MTT assay, MTT solution dissolved in PBS was added to achieve a final concentration of 500 μg/mL and incubated for 2-4 hours, after which the medium was removed and the formed formazan was dissolved in 100% DMSO, followed by measuring the absorbance at 570 nm. For the CB assay, the cultured cells were fixed with 100% methanol, stained with a 0.025% crystal violet solution, dissolved in 1% SDS solution, and the absorbance was measured at 570 nm. Cell viability was calculated as the percentage of absorbance change in drug-treated group compared to vehicle (DMSO) treated control group.

cancer cell = assay: Cancer cell survival inhibitory activity (crystal violet assay); assay type: cell-based; conditions: crystal violet assay (FIG. 19)
Experimental: as §1

lung cancer cells = assay: Anchorage-independent (soft agar) colony formation; assay type: cell-based; conditions: soft agar (FIG. 20)
Experimental: Before the experiment, a 1% agar solution made with low-melting agar was placed in a 24-well plate and hardened at room temperature to create a bottom agar. The cells were diluted with medium to seed 2×10^3 cells per well in a 24-well plate. Then, it was mixed with a 1% agar solution to create a final 0.4% agar solution, which was then solidified at room temperature in the plate containing the bottom agar. Medium containing the drug was added on top of the cells mixed in the agar and cultured for 1-3 weeks at 37° C. in a 5% CO2 condition, after which the formed colonies were stained with an MTT solution of 250-500 μg/mL and counted. The colony formation inhibitory effect of the drug was calculated by expressing the change in colony numbers in the drug-treated group compared to the vehicle (DMSO) treated control group as a percentage.

H1299 lung cancer cells = assay: Cell viability (MTT assay) in H1299 cells; assay type: cell-based, human; conditions: 0.5-10 μM, 3 days, MTT (FIG. 9-12)
From the text: (§2) Human lung cancer cell lines (H1299, H460, A549, H226B, and PC9), breast cancer cell line (MDA-MB-231), liver cancer cell line (Hep3B), kidney cancer cell line (786-0), prostate cancer cell lines (DU145 and PC-3), and mouse lung cancer cell line (Lewis Lung Carcinoma, LLC) were purchased from ATCC (American Type Culture Collection) or obtained from Dr. John V. Heymach of MD Anderson Cancer Center, USA. The human head and neck cancer cell line (UMSCC38) was obtained from Dr. Jeffrey N. Myers (MD Anderson Cancer Center, USA). Human colon cancer cell lines (HCT116 and HT-29) and glioblastoma cell line (U87MG) were obtained from Professor Sang Kook Lee (Seoul National University College of Pharmacy). The human kidney cancer cell line (Caki-1), and gastric cancer cell line (SNU-638) were purchased from the Korean Cell Line Bank. The chemotherapy-resistant cells [paclitaxel-resistant H460 cells (H460/PcR), paclitaxel-resistant H226B cells (H226B/PcR), cisplatin-resistant H1299 cells (H1299/CsR), pemetrexed-resistant H1299 cells (H1299/PmR)] and molecularly targeted anticancer therapy-resistant cells [erlotinib-resistant PC9 cells (PC9/ER)] were constructed by treating the respective anti-cancer drugs for more than three months. H1299, H460, H226B, PC9, Hep3B, 786-0, DU145, PC-3, HCT116, HT-29, SNU-638, chemotherapeutic resistant cells, and molecularly targeted anticancer therapy-resistant cells were cultured in RPMI 1640 media containing 10% fetal bovine serum (FBS) and antibiotics at 37° C. under 5% CO2 conditions, while MDA-MB-231, UMSCC38, U87MG, Caki-1 were cultured in DMEM media containing 10% FBS and antibiotics at 37° C. under 5% CO2 conditions. Cells were passaged 1-2 times per week.
as §1

[1] = system: Hsp70 protein and Hsp70/Hsp90 client proteins (Akt, Src, and MEK); assay: Western blot of Hsp70 and client proteins in lung cancer cells; assay type: cell-based, human; conditions: for expression of Hsp70 protein and Hsp70/Hsp90 client proteins (Akt, Src, and MEK): H1299 cells, up to 250 nM, 2 days (FIG. 17)
From the text: as §2
The cells treated with the drug were treated with RIPA lysis buffer [50 mM Tris-HCl (pH 7.4), 150 mM NaCl, 1 mM EDTA, 0.25% sodium deoxycholate, 1% Triton X-100, 100 mM NaF, 5 mM Na3VO4, 1 mM PMSF, 1 μg/mL aprotinin, 1 μg/mL leupeptin, and 1 μg/mL pepstatin], followed by incubation on ice for 10 minutes and centrifugation at 13,000 rpm for 15 minutes to extract proteins. The proteins were quantified by BCA assay and equal amounts of proteins were separated by 8-10% SDS-PAGE. The separated proteins were transferred to a PVDF membrane, and the areas of the membrane not transferred with protein were blocked by incubating the membrane in 5% skim milk solution or 3% BSA solution diluted in TBST at room temperature for 1 hour. The membrane was then incubated in a primary antibody solution diluted 1:1,000 in 3% BSA at 4° C. for more than 12 hours. The primary antibody used was either anti-Hsp70 or anti-actin, with the anti-Hsp70 antibody obtained from Enzo Life Science and the actin antibody obtained from Santa Cruz Biotechnology. After incubation, the membrane was washed for 1 hour while changing TBST several times, and then incubated for 1 hour at room temperature with a secondary antibody (GeneTex) diluted 1:5,000 in 5% skim milk solution. After incubation, the membrane was washed for 1 hour while changing TBST several times, and then treated with an enhanced chemiluminescence (ECL) solution. The expression of Hsp70 or Actin protein was detected using LAS4000.

[2] = system: various lung cancer cell lines and chemotherapeutic agent-resistant lung cancer cell lines; assay: Cell viability in lung cancer and chemotherapeutic drug-resistant lung cancer cell lines; assay type: cell-based, human; conditions: lung cancer and chemotherapeutic agent-resistant lung cancer cell lines (FIG. 13, 15)
From the text: (§3) Human lung cancer cell lines (H1299, H460, A549, H226B, and PC9), breast cancer cell line (MDA-MB-231), liver cancer cell line (Hep3B), kidney cancer cell line (786-0), prostate cancer cell lines (DU145 and PC-3), and mouse lung cancer cell line (Lewis Lung Carcinoma, LLC) were purchased from ATCC (American Type Culture Collection) or obtained from Dr. John V. Heymach of MD Anderson Cancer Center, USA. The human head and neck cancer cell line (UMSCC38) was obtained from Dr. Jeffrey N. Myers (MD Anderson Cancer Center, USA). […]
as §1, with “Cell viability was calculated as the percentage of absorbance change in drug-treated group compared to vehicle (DMSO) treated control group.” left out

[3] = system: various lung cancer cells and chemotherapeutic drug-resistant lung cancer cell lines; assay: Anchorage-dependent colony formation in lung cancer and drug-resistant lung cancer cell lines; assay type: cell-based, human; conditions: 0.5 μM (FIG. 14, 16)
From the text: as §3, with “USA). Human colon cancer cell lines (HCT116 and HT-29) and glioblastoma cell line (U87MG) were obtained from Professor Sang Kook Lee (Seoul National University College of Pharmacy). The human kidney cancer cell line (Caki-1), and gastric cancer cell line (SNU-638) were purchased from the Korean Cell Line Bank.” for “USA).”
Cancer cell lines were seeded in a 24-well or 6-well plate at 100-250 cells per well and allowed to attach, followed by treatment with drugs diluted in media and cultured for 2-3 weeks. Formed colonies were stained with crystal violet and counted. The drug's colony formation inhibitory effect was calculated as the percentage of colony number change in the drug-treated group compared to the vehicle (DMSO)-treated control group.

Structure (SMILES): C=C(C)CN1c2ccccc2C(=O)N2CCc3c([nH]c4ccc(O)cc34)C21 (stereo not drawn) [EV509]
- inhibition at 0.5 µM (lung cancer cell): > 65%
- cancer cell survival inhibitory activity (cancer cell): as excellent as EV507
- anchorage-independent colony formation (lung cancer cells): effectively inhibited
- melting point: 211 to 213 °C

Structure (SMILES): C#CCN1c2ccccc2C(=O)N2CCc3c([nH]c4c([N+](=O)[O-])cc([N+](=O)[O-])cc34)C21 (stereo not drawn) [EV506]
- inhibition at 0.5 µM (lung cancer cell): > 50%
- melting point: 232 to 234 °C

Structure (SMILES): CC(C)=CCN1c2ccccc2C(=O)N2CCc3c([nH]c4ccccc34)C21 (stereo not drawn) [EV217]
- lung cancer cell death (cell viability) (H1299 lung cancer cells): excellent effects

Structure (SMILES): CN1c2ccc(Br)cc2C(=O)N2CCc3c([nH]c4ccccc34)C21 (stereo not drawn) [EV306]
- lung cancer cell death (cell viability) (H1299 lung cancer cells): excellent effects

Structure (SMILES): C=CCN1c2ccccc2C(=O)N2CCc3c([nH]c4ccccc34)C21 (stereo not drawn) [EV206, 14N-Allyl Evodiamine]
- lung cancer cell death (cell viability) (H1299 lung cancer cells): excellent effects
- expression of Hsp70 protein and Hsp70/Hsp90 client proteins (Akt, Src, and MEK) [1]: clear reduction
- growth-inhibitory effect [2]: excellent growth-inhibitory effects
- formation of colonies under anchorage-dependent (adherent) conditions [3]: significantly inhibited

Structure (SMILES): C=C(C)CN1c2ccccc2C(=O)N2CCc3c([nH]c4c([N+](=O)[O-])cc([N+](=O)[O-])cc34)C21 (stereo not drawn) [EV504]
- cancer cell survival inhibitory activity (cancer cell): as excellent as EV507
- melting point: 175 to 177 °C

Structure (SMILES): CN1c2ccc(Cl)cc2C(=O)N2CCc3c([nH]c4ccccc34)C21 (stereo not drawn) [EV304]
- lung cancer cell death (cell viability) (H1299 lung cancer cells): excellent effects

Structure (SMILES): CN1c2ccc([N+](=O)[O-])cc2C(=O)N2CCc3c([nH]c4ccccc34)C21 (stereo not drawn) [EV303]
- lung cancer cell death (cell viability) (H1299 lung cancer cells): excellent effects

Structure (SMILES): CN1c2ccc(F)cc2C(=O)N2CCc3c([nH]c4ccccc34)C21 (stereo not drawn) [EV301]
- lung cancer cell death (cell viability) (H1299 lung cancer cells): excellent effects

Structure (SMILES): COc1cccc2c1C(=O)N1CCc3c([nH]c4ccccc34)C1N2C (stereo not drawn) [EV309]
- lung cancer cell death (cell viability) (H1299 lung cancer cells): excellent effects

Structure (SMILES): CC#CCN1c2ccccc2C(=O)N2CCc3c([nH]c4ccccc34)C21 (stereo not drawn) [EV219]
- lung cancer cell death (cell viability) (H1299 lung cancer cells): excellent effects

Structure (SMILES): C#CCN1c2ccccc2C(=O)N2CCc3c([nH]c4ccccc34)C21 (stereo not drawn) [EV205, 14N-propagyl Evodiamine]
- lung cancer cell death (cell viability) (H1299 lung cancer cells): excellent effects

Structure (SMILES): CN1c2cccc(Cl)c2C(=O)N2CCc3c([nH]c4ccccc34)C21 (stereo not drawn) [EV308]
- lung cancer cell death (cell viability) (H1299 lung cancer cells): excellent effects

Structure (SMILES): Cc1ccc2[nH]c3c(c2c1)CCN1C(=O)c2ccccc2N(C)C31 (stereo not drawn) [EV406]
- lung cancer cell death (cell viability) (H1299 lung cancer cells): excellent effects

Structure (SMILES): CN1c2ccccc2C(=O)N2CCc3c([nH]c4ccc(O)cc34)C21 (stereo not drawn) [EV408]
- lung cancer cell death (cell viability) (H1299 lung cancer cells): excellent effects
- expression of Hsp70 protein and Hsp70/Hsp90 client proteins (Akt, Src, and MEK) [1]: clear reduction
- growth-inhibitory effect [2]: excellent growth-inhibitory effects
- formation of colonies under anchorage-dependent (adherent) conditions [3]: significantly inhibited

Structure (SMILES): CN1c2ccc(I)cc2C(=O)N2CCc3c([nH]c4ccccc34)C21 (stereo not drawn) [EV310]
- lung cancer cell death (cell viability) (H1299 lung cancer cells): excellent effects

Structure (SMILES): CN1c2ccccc2C(=O)N2CCc3c([nH]c4c([N+](=O)[O-])cc([N+](=O)[O-])cc34)C21 (stereo not drawn) [EV402]
- lung cancer cell death (cell viability) (H1299 lung cancer cells): excellent effects

Structure (SMILES): Cc1ccc2c(c1)C(=O)N1CCc3c([nH]c4ccccc34)C1N2C (stereo not drawn) [EV307]
- lung cancer cell death (cell viability) (H1299 lung cancer cells): excellent effects

Structure (SMILES): CCCOc1ccc2[nH]c3c(c2c1)CCN1C(=O)c2ccccc2N(C)C31 (stereo not drawn) [EV413]
- lung cancer cell death (cell viability) (H1299 lung cancer cells): excellent effects

Structure (SMILES): CN1c2ccccc2C(=O)N2CCc3c([nH]c4ccc([N+](=O)[O-])cc34)C21 (stereo not drawn) [EV401]
- lung cancer cell death (cell viability) (H1299 lung cancer cells): excellent effects

Structure (SMILES): C=CCN1c2ccccc2C(=O)N2CCc3c([nH]c4ccc([N+](=O)[O-])cc34)C21 (stereo not drawn) [EV501]
- expression of Hsp70 and Src and Akt (client proteins of Hsp70/Hsp90) ([1]; Western blot (FIG. 21)): decrease
- inhibition at 0.5 µM (lung cancer cell): > 65%
- cancer cell survival inhibitory activity (cancer cell): as excellent as EV507
- anchorage-independent colony formation (lung cancer cells): effectively inhibited
- melting point: 186 to 188 °C

Structure (SMILES): COc1ccc2c(c1)C(=O)N1CCc3c([nH]c4ccccc34)C1N2C (stereo not drawn) [EV302]
- lung cancer cell death (cell viability) (H1299 lung cancer cells): excellent effects

Structure (SMILES): C=C(C)CN1c2ccccc2C(=O)N2CCc3c([nH]c4ccccc34)C21 (stereo not drawn) [EV218, 14N-(2-methyl)allyl evodiamine]
- lung cancer cell death (cell viability) (H1299 lung cancer cells): excellent effects

Structure (SMILES): C=C(C)CN1c2ccccc2C(=O)N2CCc3c([nH]c4ccc([N+](=O)[O-])cc34)C21 (stereo not drawn) [EV502]
- inhibition at 0.5 µM (lung cancer cell): > 50%
- melting point: 261 to 262 °C

Structure (SMILES): CN1c2ccccc2C(=O)N2CCc3c([nH]c4ccc(Cl)cc34)C21 (stereo not drawn) [EV407]
- lung cancer cell death (cell viability) (H1299 lung cancer cells): excellent effects

Structure (SMILES): COc1ccc2[nH]c3c(c2c1)CCN1C(=O)c2ccccc2N(C)C31 (stereo not drawn) [EV403]
- lung cancer cell death (cell viability) (H1299 lung cancer cells): excellent effects

Structure (SMILES): C=CCN1c2ccccc2C(=O)N2CCc3c([nH]c4c([N+](=O)[O-])cc([N+](=O)[O-])cc34)C21 (stereo not drawn) [EV503]
- inhibition at 0.5 µM (lung cancer cell): > 50%
- melting point: 229 to 231 °C

Structure (SMILES): C#CCN1c2ccccc2C(=O)N2CCc3c([nH]c4ccc(O)cc34)C21 (stereo not drawn) [EV508]
- inhibition at 0.5 µM (lung cancer cell): > 65%
- cancer cell survival inhibitory activity (cancer cell): as excellent as EV507
- anchorage-independent colony formation (lung cancer cells): effectively inhibited
- melting point: 230 to 232 °C

— patent US20240140949A1, “ANTI-CANCER PHARMACEUTICAL COMPOSITION FOR TARGETING HEAT SHOCK PROTEIN 70, CONTAINING INDOLOQUINAZOLIDINE ALKALOID” (SEOUL NATIONAL UNIVERSITY R & DB FOUNDATION, priority 2021, published 2024)
